Assay results from patent US9182666B2, “Cyclic compound, method for producing the same, radiation-sensitive composition, and resist pattern formation method” (MITSUBISHI GAS CHEMICAL COMPANY, INC., priority 2011, dated 2015).

Assay: Solubility test of compound in safe solvent
Type: physicochemical
Conditions: 23° C.; for dissolution amount in CHN: cyclohexanone (CHN); for dissolution amount in PGME: propylene glycol monomethyl ether (PGME)
Procedure: The dissolution amounts of compounds obtained in the above synthesis examples 1 to 6 and syntheses 1 and 2 in propylene glycol monomethyl ether (PGME) and cyclohexanone (CHN) were evaluated as follows.
• A: 5.0% by mass≦dissolution amount • B: 3.0% by mass≦dissolution amount<5.0% by mass • C: dissolution amount<3.0% by mass *dissolution amount (% by mass)=mass (g) of compound dissolved in 100 g of solvent of 23° C./(100 g of mass of solvent+mass (g) of compound dissolved in 100 g of solvent of 23° C.)×100

SMILES | dissolution amount in CHN | dissolution amount in PGME
CC(C)c1ccc(C2c3cc(c(O)cc3O)C(c3ccc(C(C)C)cc3)c3cc(c(O)cc3O)C(c3ccc(C(C)C)cc3)c3cc(c(O)cc3O)C(c3ccc(C(C)C)cc3)c3cc2c(O)cc3O)cc1 (stereo not shown) [CR-1A] | C (dissolution amount<3.0% by mass) | B (3.0% by mass≦dissolution amount<5.0% by mass)
Oc1cc(O)c2cc1C(c1ccc(C3CCCCC3)cc1)c1cc(c(O)cc1O)C(c1ccc(C3CCCCC3)cc1)c1cc(c(O)cc1O)C(c1ccc(C3CCCCC3)cc1)c1cc(c(O)cc1O)C2c1ccc(C2CCCCC2)cc1 (stereo not shown) [CR-2A] | B (3.0% by mass≦dissolution amount<5.0% by mass) | B (3.0% by mass≦dissolution amount<5.0% by mass)
